Data taken from patent publication US8008007B2, “S-adenosyl-L-methionine analogs with extended activated groups for transfer by methyltransferases” (RWTH Aachen, priority 2005, dated 2011).

Legend:
M.HhaI-Q82A/N304A [1] = target: T1, M.HhaI-Q82A/N304A (Haemophilus parahaemolyticus, UniProt P05102, N304A/Q82A); experiment: Modification of cytosine-C5 in duplex oligodeoxynucleotide III.IV by M.HhaI-Q82A/N304A, nucleoside analysis by HPLC/ESI-MS; assay type: biochemical; settings: duplex III.IV 10 μM, cofactor 300 μM, enzyme 12.5 μM, 37° C. over night
T1 construct: made in house
Procedure: After enzymatic transfer the duplex oligodeoxy-nucleotides were enzymatically fragmented and the resulting modified nucleosides were analyzed by reversed-phase HPLC coupled with ESI-MS.
Therefore, the codon for N304 was changed to a codon for alanine by standard Megaprimer PCR mutagenesis (Sambrook and Russell, (2001) Cold Spring Harbor Laboratory Press, 13.31-13.35) and the fragment containing this mutation was cloned into the plasmid containing the Q82A mutation (Example 2B, Example 3B.2. The correct DNA sequence of the complete gene was verified by DNA sequencing. Expression and purification of the Q82A/N304A variant was performed as described for the wild-type enzyme (Kumar et al., (1992) Biochemistry 31, 8648-8653; Klimasauskas et al., (1998) EMBO J. 17, 317-324). The presence of the amino acid substitution was verified by mass spectrometric analysis of purified M.HhaI-Q82A/N304A.
The duplex oligodeoxynucleotide III.IV (compare Scheme 6, Example 2B) was produced by mixing equal molar amounts (2.5 nmol) of complementary single-stranded oligodeoxynucleotide III (5′-[…] CTAT-3′) (SEQ ID NO. 3) and IV (5′-[…]-3′) (SEQ. ID NO. 4) in water, heating at 85° C. for 5 min and slow cooling to room temperature. […] The solution was heated to 80° C. for 10 min, supplemented with Proteinase K and incubated at 55° C. for 2 h. […]

M.HhaI-Q82A/N304A [2] = target: T1, M.HhaI-Q82A/N304A; experiment: DNA protection assay with M.HhaI variant Q82A/N304A on phage lambda DNA; assay type: biochemical; settings: 1.16 μg phage lambda DNA, cofactor 300 μM, 37° C. for 1 h, enzyme from 1100 ng
Procedure: Afterwards, the reactions were stopped by heating to 80° C. for 10 min. […] Parallel control experiments were performed with phage lambda DNA in the absence of M.HhaI-Q82A/N304A and in the presence of M.HhaI-Q82A/N304A (1100 ng).

pBR322 plasmid DNA = settings: modification with M.TaqI or M.HhaI-Q82A/N304A, cofactor 300 μM, 4 h

T1 sequence (P05102 whole entry Q82A/N304A): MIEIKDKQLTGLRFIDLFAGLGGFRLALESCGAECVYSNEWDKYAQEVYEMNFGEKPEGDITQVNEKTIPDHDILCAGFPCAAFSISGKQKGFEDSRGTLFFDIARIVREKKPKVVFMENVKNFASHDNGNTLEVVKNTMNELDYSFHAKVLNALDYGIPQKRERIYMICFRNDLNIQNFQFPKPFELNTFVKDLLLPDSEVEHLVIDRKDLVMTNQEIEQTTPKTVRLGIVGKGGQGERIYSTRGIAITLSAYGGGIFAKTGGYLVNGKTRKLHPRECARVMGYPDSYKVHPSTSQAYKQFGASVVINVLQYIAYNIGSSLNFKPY

Question: With `NCCCC(=O)NCC#CC[S+](CCC(N)C(=O)O)CC1OC(n2cnc3c(N)ncnc32)C(O)C1O` (stereo not drawn) [Cofactor 10] as the compound, how does the “cofactor function for M.HhaI-Q82A/N304A (transfer of group Z-R to cytosine-C5)” value (M.HhaI-Q82A/N304A [1]) read?
Answer: Its value is “functions as a cofactor”.

Question: What about the “protection of phage lambda DNA against R.Hin6I fragmentation” value (M.HhaI-Q82A/N304A [2]) of the same compound?
Answer: The value was “almost protected phage lambda DNA”.

Question: And the “two-step labeling of amino-modified pBR322 DNA with fluorescein N-hydroxysuccinimidyl ester” value (pBR322 plasmid DNA)?
Answer: The value was “labeling is sequence-specific”.
